From ChEMBL document CHEMBL6121057, “Discovery of an Orally Bioavailable STING Inhibitor with In Vivo Anti-Inflammatory Activity in Mice with STING-Mediated Inflammation” (J Med Chem, 2025)

Experiments:
[1] = Metabolic stability in human liver microsomes assessed as half life; type: ADME, Microsome
[2] = Metabolic stability in human liver microsomes assessed as intrinsic clearance; type: ADME, Microsome; conditions: read-out: CLH

half-life [1]: 41 min
CLint scaled [2]: 21.7 mL/min/kg
Compound: O=C(Nc1ccc(C2CCC(F)(F)CC2)cc1)Nc1c[nH]c2ccc(F)cc12
